Our source for the carcinogen call and TD50 values is PubChem BioAssay AID1745844 (Carcinogenic Potency Database (CPDB), 2022).

SMILES strings stand for the structures. The source made the active and inactive calls. The rule behind the calls is not given here.

The data set has as its system rodent lifetime carcinogenesis bioassay, tumor incidence TD50. Description: chronic cancer bioassays in animals – CPDB, compiled studies (AID 1745844).

One may read the TD50 as the dose at which the toxic effect under study appears in half of the subjects. For the molecule `O=C(OOC(=O)c1ccccc1)c1ccccc1`, the carcinogen call (mouse, strain albino, both sexes, in feed, site: liver, lesion: hepatoma, dosed 80 weeks, study length 80 weeks) is “negative (inactive)”; the carcinogen call (mouse, strain albino, both sexes, in feed, site: lung, lesion: adenoma, dosed 80 weeks, study length 80 weeks) is “negative (inactive)”; the carcinogen call (rat, strain albino, both sexes, in feed, site: liver, lesion: malignant hepatoma, dosed 120 weeks, study length 120 weeks) was “negative (inactive)”. The TD50 reads like this: (rat, strain albino, both sexes, in feed, site: any site (literature study), lesion: benign tumor, dosed 120 weeks, study length 120 weeks) 6480 mg/kg/day (inactive); (rat, strain albino, both sexes, in feed, site: any site (literature study), lesion: malignant tumor, dosed 120 weeks, study length 120 weeks) 15600 mg/kg/day (inactive).

Turning to `[Cl][Fe]([Cl])[Cl]`, the TD50 runs as follows: (rat, strain F344/DuCrj, females, in drinking water, site: any site (literature study), lesion: one or several types, types not named, dosed 104 weeks, study length 112 weeks) 505 mg/kg/day (inactive); (rat, strain F344/DuCrj, males, in drinking water, site: liver, lesion: neoplastic nodule, dosed 104 weeks, study length 112 weeks) 8810 mg/kg/day (inactive). For the same molecule, the carcinogen call is, setting by setting: (rat, strain F344/DuCrj, females, in drinking water, site: liver, lesion: neoplastic nodule, dosed 104 weeks, study length 112 weeks) “negative (inactive)”; (rat, strain F344/DuCrj, males, in drinking water, site: any site (literature study), lesion: one or several types, types not named, dosed 104 weeks, study length 112 weeks) “negative (inactive)”.

As for `OCCN(CCO)C(=S)S`, the TD50 reads like this: (mouse, strain B6AKF1, females, oral dosing, site: any site (literature study), lesion: several types, types named in the paper, dosed 79 weeks, study length 79 weeks) 138 mg/kg/day; (mouse, strain B6AKF1, females, oral dosing, site: liver, lesion: hepatoma, dosed 79 weeks, study length 79 weeks) 298 mg/kg/day; (mouse, strain B6AKF1, females, oral dosing, site: lung, lesion: adenoma, dosed 79 weeks, study length 79 weeks) 850 mg/kg/day; (mouse, strain B6AKF1, males, oral dosing, site: any site (literature study), lesion: several types, types named in the paper, dosed 79 weeks, study length 79 weeks) 45.6 mg/kg/day; (mouse, strain B6AKF1, males, oral dosing, site: liver, lesion: hepatoma, dosed 79 weeks, study length 79 weeks) 41.5 mg/kg/day; (mouse, strain B6C3F1, females, oral dosing, site: any site (literature study), lesion: several types, types named in the paper, dosed 79 weeks, study length 79 weeks) 48.4 mg/kg/day. Also, the TD50 is 56.4 mg/kg/day (mouse, strain B6C3F1, females, oral dosing, site: liver, lesion: hepatoma, dosed 79 weeks, study length 79 weeks); 1080 mg/kg/day (mouse, strain B6C3F1, females, oral dosing, site: lung, lesion: adenoma, dosed 79 weeks, study length 79 weeks); 27.8 mg/kg/day (mouse, strain B6C3F1, males, oral dosing, site: any site (literature study), lesion: several types, types named in the paper, dosed 79 weeks, study length 79 weeks); 34.5 mg/kg/day (mouse, strain B6C3F1, males, oral dosing, site: liver, lesion: hepatoma, dosed 79 weeks, study length 79 weeks).

As to `N#Cc1ccc(C2CCCc3cncn32)cc1` (stereo not drawn), the carcinogen call by setting is: (rat, strain Sprague-Dawley, females, by gavage, site: any site (literature study), lesion: several types, types named in the paper, dosed 104 weeks, study length 104 weeks) “negative (inactive)”; (rat, strain Sprague-Dawley, females, by gavage, site: liver, lesion: several types, types named in the paper, dosed 104 weeks, study length 104 weeks) “negative (inactive)”; (rat, strain Sprague-Dawley, females, by gavage, site: mammary gland, lesion: several types, types named in the paper, dosed 104 weeks, study length 104 weeks) “negative (inactive)”; (rat, strain Sprague-Dawley, males, by gavage, site: liver, lesion: several types, types named in the paper, dosed 104 weeks, study length 104 weeks) “negative (inactive)”.
